Reference: PubChem BioAssay (NCI)
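Compound exposure: 48 hours, 5 concentrations, 96-well plates. GI50 = concentration required for 50% inhibition of growth. TGI is the concentration that stops growth completely.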

How the values were obtained:
Assay in all cases: NCI-60 cell line screen, 48 h
NCI-H23 lung = system: NCI-H23 lung
UACC-62 melanoma = system: UACC-62 melanoma
COLO 205 colon = system: COLO 205 colon
UACC-257 melanoma = system: UACC-257 melanoma
HL-60(TB) leukemia = system: HL-60(TB) leukemia
SF-295 CNS = system: SF-295 CNS
SNB-19 CNS = system: SNB-19 CNS
MALME-3M melanoma = system: MALME-3M melanoma
BT-549 breast = system: BT-549 breast
NCI-H226 lung = system: NCI-H226 lung
HCT-15 colon = system: HCT-15 colon
OVCAR-5 ovarian = system: OVCAR-5 ovarian
MDA-MB-435 = system: MDA-MB-435

Compound | TGI (NCI-H23 lung) [µM] | TGI (UACC-62 melanoma) [µM] | GI50 (COLO 205 colon) [µM] | TGI (UACC-257 melanoma) [µM] | TGI (HL-60(TB) leukemia) [µM] | TGI (SF-295 CNS) [µM] | TGI (SNB-19 CNS) [µM] | TGI (MALME-3M melanoma) [µM] | TGI (BT-549 breast) [µM] | TGI (NCI-H226 lung) [µM] | TGI (HCT-15 colon) [µM] | TGI (OVCAR-5 ovarian) [µM] | TGI (MDA-MB-435) [µM] | TGI (COLO 205 colon) [µM]
CC(=O)[O-].[Ni].c1ccc(/C(=N\Nc2ccccn2)c2ccccn2)cc1 | 28.9 | 18.8 | 0.0121 | 23.2 | 0.61 | 26.8 | 54 | 20.9 | 45.1 | 47.6 | 41.1 | 47.3 | 22.4 | 
COc1ccc(N=Nc2c(C)c(C#N)c(=S)n(C3OC(COC(C)=O)C(OC(C)=O)C(OC(C)=O)C3OC(C)=O)c2-c2ccccc2)cc1 (configuration not stated) | 34.6 |  |  | 75.8 | > 100 | 82.1 | 24.2 | 29.9 | 17.6 |  | 77.2 | 30.8 | 27.4 | 22.9
O=C(O)CSc1nnc(CCCCCCCCc2nnc(SCC(=O)O)o2)o1 | > 100 | > 100 |  | > 100 | > 100 | > 100 | > 100 | > 100 | > 100 | > 100 | > 100 | > 100 | > 100 | > 100
Cn1c(=O)c2nc3nnc(C#N)c(N)n3c2n(C)c1=O |  | > 100 |  |  | > 100 | > 100 |  | 81.2 | > 100 | > 100 | > 100 | > 100 | > 100 | > 100
CC(=O)N1CC[N+](C)(CCCCN2c3ccccc3Sc3cc(N=[N+]=[N-])ccc32)CC1 | > 100 | > 100 |  | > 100 | > 100 | > 100 | > 100 | > 100 | > 100 | > 100 | > 100 | > 100 | > 100 | > 100
BrCCC[P+](c1ccccc1)(c1ccccc1)c1ccccc1 | > 64.7 | 64.2 |  | 48.3 | 6.49 | > 100 | > 100 | > 100 | > 100 | > 100 | > 100 | > 100 | > 51.8 | 4.16
CC(=O)O[C@H]1CC[C@H]2[C@@H]3CCC4=C(C(=O)C=CC4(C)OC(C)=O)[C@H]3CC[C@]12C (some centres not stated) | > 100 | 74.5 |  | > 100 | 97.1 | > 100 | > 100 | > 100 | > 100 | > 100 | > 100 | > 100 | > 100 | 
COc1ccc2c[n+](C)c3c4cc(OC)c(OC)cc4ccc3c2c1 | 13.6 | 41.3 |  | 57.6 | 32.4 | 34.8 | 12 | 42 | 10.8 | 35.1 | > 70.4 | 34.4 | 28.4 | 5.49
NC1=NN(c2ccccc2)C2(c3ccncc3C(=O)O)C1C(N)=NN2c1ccccc1 (configuration not stated) | > 100 | > 100 |  | > 100 | > 100 | > 100 | > 100 | > 100 | > 100 | > 100 | > 100 | > 100 | > 100 | > 100
NC(N)=NS(=O)(=O)c1ccc(Nc2c3ccccc3nc3c(C(=O)NC(CO)(CO)CO)cccc23)cc1 | > 100 | 94.6 |  | > 100 | 71.4 | > 100 | > 100 | 45.3 | 36.7 |  | > 100 | 65.4 | > 100 | 51.7
C=C(CN(C)C)C(=O)c1cc(C)ccc1C | 33.4 | 29.7 |  | 26 | 0.446 | 34.1 | 39.2 | 7.77 | 32.5 | 27.8 | 10.6 | 31.2 | 22.1 | 3.53
Cc1ccc(S(=O)C[C@@]2(C(F)F)NC(=O)NC2=O)cc1 (some centres not stated) | > 100 | > 100 |  | > 100 | > 100 | > 100 | > 100 | > 100 | > 100 | > 100 | > 100 | > 100 | > 100 | > 100
COc1ccc(/C=C(\C(=O)OCC(C)C)c2ccc(OC)c(OC)c2)cc1OC | > 100 | > 100 |  | > 100 | > 100 | > 100 | > 100 |  | > 100 | > 100 | > 100 | > 100 | > 100 | > 100
O=C(Nc1nncs1)NS(=O)(=O)n1cnc2ccccc21 | > 100 | > 100 |  | > 100 | > 100 | > 100 | > 100 | > 100 | > 100 | > 100 | > 100 | > 100 | > 100 | > 100
O=c1c[n+](-c2ccccc2)[nH]o1 | > 100 | > 100 |  | > 100 | > 100 | > 100 | > 100 | > 100 | > 100 |  | > 100 | > 100 | > 100 | > 100
CCn1c(-c2ccccc2)nc2c1C(=O)c1ccccc1C2=O | > 100 | 60.2 |  |  | > 100 | 62.9 | > 100 | 21.7 | 60.6 | 71.6 | 44.1 | 82.8 | 33.8 | 91.1
Cc1nc(N)c(N2CCN(Cc3ccccc3)CC2)c(=O)[nH]1 | > 100 |  |  | > 100 | > 100 | > 100 | > 100 | > 100 | > 100 | > 100 | > 100 | > 100 | > 100 | > 100
c1ccc(SC(Sc2ccccc2)c2ccc3c(c2)OCO3)cc1 | > 100 | > 100 |  | > 100 | > 100 | > 100 | > 100 | > 100 | > 100 | > 100 | > 100 | > 100 | > 100 | 
